Key:
AspOry = assay: glycine oxidase assay, TA screening towards HMW amino donors; format: biochemical, Aspergillus oryzae; parameters: key: 0: no activity detected; conditions: wildtype TA; 20 mM amino donor (2.5 mM α-MBA), 2.5 mM glyoxylate, CHES pH 9.5, 37° C., absorbance 498 nm
Procedure: (§1) The HMW amino donors listed in Table 1 were tested in a feasibility study for reaction with TA enzymes (the HMW amino donors being commercially available and relatively cheap). More particularly, in this study the acceptance of HMW amino donors by TA enzymes was investigated running a glycine oxidase assay (as described by WeiB et al. in Anal. Chem. 2014, 86, 11847-11853). Thereto, 25 wild type transaminases were selected from a library of enzymes. Transaminase selection was made on the basis of TAs availability, broad substrate and amino donor scope, and stability.
(§2) Final substrate concentration amounted to 2.5 mM glyoxylate, 20 mM large amino donor, 7.28 U/mL horseradish peroxidase, 0.12 mg/mL purified glycine oxidase, 3 mM 4-amino antipyrine, and 4.7 mM vanillic acid in CHES buffer (100 mM) with pH 9.5, in total reaction volumes of 150 μL. Cells with empty pET28a(+) vector were applied as negative control. A reaction using 2.5 mM α-MBA was applied as positive control.
(§3) The above (photometric) assay is semiquantitative: the increasing absorbance (slope in FIG. 4.1) correlates with enzyme activity. An accurate quantification, however, was difficult to be performed as the assay is a multi-enzyme reaction.
(§4) TA_3HMU was then further tested with three commercially available HMW Jeffamines® (AD 3, 4 and 6).

MycVan = assay: as above; format: biochemical, Mycobacterium vanbaalenii; parameters: key: 0: no activity detected; conditions: wildtype TA; 20 mM amino donor (2.5 mM α-MBA), 2.5 mM glyoxylate, CHES pH 9.5, 37° C., absorbance 498 nm
Procedure: as §1, §2, §3, §4

AspFum = assay: as above; format: biochemical, Aspergillus fumigatus; parameters: key: 0: no activity detected; conditions: wildtype (R)- TA; 20 mM amino donor (2.5 mM α-MBA), 2.5 mM glyoxylate, CHES pH 9.5, 37° C., absorbance 498 nm
Procedure: as §1, §2, §3, §4

Vfl = assay: as above; format: biochemical, Vibrio fluvialis JS17; parameters: key: 0: no activity detected; conditions: wildtype TA; 20 mM amino donor (2.5 mM α-MBA), 2.5 mM glyoxylate, CHES pH 9.5, 37° C., absorbance 498 nm
Procedure: as §1, §2, §3, §4

3HMU = assay: as above; format: biochemical, Ruegeria pomeroyi; parameters: key to TA activity towards amino donor (3HMU): 0: no activity detected; conditions: for TA_3HMU activity / acceptance of amino donor, in words: glycine oxidase assay, semiquantitative; for TA activity towards amino donor (3HMU): wildtype (S)-selective TA, 20 mM amino donor (2.5 mM α-MBA), 2.5 mM glyoxylate, CHES pH 9.5, 37° C., absorbance 498 nm
Procedure: as §1, §2, §3, §4

ATA 117 = assay: as above; format: biochemical, Arthrobacter sp.; parameters: key: 0: no activity detected; conditions: wildtype TA; 20 mM amino donor (2.5 mM α-MBA), 2.5 mM glyoxylate, CHES pH 9.5, 37° C., absorbance 498 nm
Procedure: as §1, §2, §3, §4

3FCR = assay: as above; format: biochemical, Ruegeria sp. TM1040; parameters: key: 0: no activity detected; conditions: wildtype TA; 20 mM amino donor (2.5 mM α-MBA), 2.5 mM glyoxylate, CHES pH 9.5, 37° C., absorbance 498 nm
Procedure: as §1, §2, §3, §4

TA_3HMU = assay: asymmetric amine synthesis (transamination) with TA_3HMU; format: biochemical, Ruegeria pomeroyi; conditions: for product formation from ketosubstrate with HMW amino donors: TA_3HMU, TLC or chiral GC analysis, no equilibrium shifting strategy; for BA conversion: crude extract lyophilized TA_3HMU (3 mg/mL), 25 times excess amine donor (250 mM)
Procedure: Asymmetric synthesis of chiral amines were performed using HMW amino donors and substrates 1a, 1b and 1c in the presence of TA_3HMU enzyme. […] However, performing the transamination reaction using substrates 1a or 1b, followed by a separation of the formed amine product using a membrane unit (8), according to advantageous aspects of the disclosure, will further shift the thermodynamic equilibrium to the product side of the reaction, thereby improving the product purity of the produced amine product.
Asymmetric amine synthesis experiments were performed using freeze-dried crude extract of TA_3HMU, provided by the company Enzymicals (Germany) and using PEG-A and PEG-C as amino donors (the activity of the enzyme being 970 mU/mg, photometric assay based on acetophenone detection). For a first test, a quite high amount of enzyme (12.5 mg/mL freeze dried powder, corresponding to about 6 mg/mL of total protein content) was used. In addition to poly ethylene glycol molecules (PEGs), the common and cheap LMW amino donor IPA was also investigated. Unlike PEGs, which can be retained by a porous (nanofiltration) membrane (3) with appropriate MWCO and/or pore size, the LMW amino donor IPA will also permeate forming the second solution (2).
Asymmetric amine synthesis experiments were also performed using amine transaminases TA_v2, purchased from c-LEcta GmbH, Leipzig, Germany. The purified enzyme was supplied as freeze-dried powder, the activity of TA_v2 being 1.73 U/mg. All reactions were performed in 1 mL volume containing 12.5-0.78 mg/mL of either TA_3HMU or TA_v2 powder, 10-500 mM amine donor (IPA, PEG-A and PEG-C, 10 mM BA model substrate (dissolved in DMSO) and 0.1 mM PLP in 100 mM CHES buffer, pH 9.5. The final DSMO concentration was 5% (v/v). […]
Substrate (BA) and product (MPPA) concentrations were determined by UHPLC (Thermo Scientific™) with UV detection at 194/210 nm. The chromatographic separation was achieved using 1 μL injection onto a C18 reversed-phase column (Waters Acquity UPLC® BEH C18 1.7 μm 2.1×50 mm). The column temperature was kept at 40° C. The gradient elution program is using mobile phase A 0.1% Formic Acid (FA) in Water (dH2O) and mobile phase B 0.1% FA in acetonitrile (ACN). The elution program was as follows: 0-4 min 99-30% A; 4-5 min 30-1% A; 5-5.1 min 1-99% A; 5.1-7.5 min 99% A; all at a flowrate of 400 μL/min. Amine donors AD 3 and AD 6 were analysed by HPLC with ELSD detector on Alltima HP C18 HL 5 μ, 4.6×250 mm. The eluents for PEGs analysis were: A) dH2O, 0.1% FA; B) ACN, 0.1% FA.
Furthermore, tests were conducted using different loadings of freeze-dried crude extract of TA_3HMU. Since the biotransformation could not be observed photometrically, continuous time-dependent following of the enzyme reaction was not possible. Therefore, laborious stopped enzyme assay providing only few measure points had to be employed. As expected, the initial reaction rate decreased when the enzyme loading was reduced. In presence of IPA donor amine, higher conversions were achieved. However, the reaction end-point decreased, reducing the enzyme amount (cf. FIG. 5.2c). […] Experimental conditions in FIG. 5.2: 10 mM BA; 250 mM AD; 0.1 mM PLP; 5% DMSO; 100 mM CHES buffer, pH 9.5, 30° C., 1000 rpm.
As already discussed hereinabove, using IPA as amine donor in transaminase reactions, a very high amount (e.g. 50-100 fold) amine donor excess is required, complicating downstream processing and possibly hampering the stability and activity of TAs (cf. e.g. Slabu, I. et al. in Catal. Today 306, 96-101 (2018); Savile, C. K. et al. in Science 329, 305-9 (2010); Dawood, A. W. H. et al. in ChemCatChem 10, 951-955 (2018)). TA_3HMU stability towards IPA and HMW ADs 3 and 6 was therefore explored. […] In contrast to IPA, in presence of bulky donor amines (cf. FIG. 5.3a and FIG. 5.3b). Experimental conditions in FIG. 5.3: 10 mM BA; 250 mM amine donor (AD 3, AD 6 or IPA); 0.1 mM PLP; 5% DMSO; 100 mM CHES buffer, pH 9.5, 30° C., 1000 rpm. […]

TA_v2 = format: biochemical
Procedure: Reaction was performed in 600 mL volume containing 2 mg/mL of TA_v2 powder, 250 mM AD 6, 10 mM BA substrate (dissolved in DMSO) and 0.1 mM PLP in 100 mM CHES buffer, pH 9.5. The final DSMO concentration was 5% (v/v). After 16 h of reaction, 550 mL of reaction mixture was transferred into the membrane unit and 2 intermittent nanofiltration tests were performed. The remaining 50 mL of reaction mixture was used as control without filtration. After the first nanofiltration (6 h duration, DESAL® DK, 20 bar), the collected permeate and the retentate were mixed, and 5 mM of additional BA substrate were added. Additional substrate was added also to the control condition. After 16 h of reaction, the second nanofiltration was performed (5 h duration, DuraMem® 200, 20 bar). Reaction permeate and retentate samples were taken after distinct time periods and prepared for quantitative analysis.
Addition of BA (5 mM) was made to the enzymatic tank E-1 after 24 h reaction. The second nanofiltration was run after 39 h reaction (DuraMem® 200 membrane, 20 bar).

[1] = on line nanofiltration (Desal-DK membrane) coupled with enzymatic reaction; format: biochemical; conditions: after 1.5 h, BA manually diafiltrated (40 mM)
Procedure: Diafiltration depends on the permeate flow rate since it occurs at the same rate of permeation. Therefore, reaction and permeation rates are to be matched. When solution of high concentrated substrate (BA 200 mM in DMSO) was subjected to diafiltration, BA was accumulating in the enzymatic tank 6 (FIG. 20).
Permeate flux was very low, therefore BA was manually diafiltrated (40 mM). After 1.5 h, 18% BA was converted.

Compound: CC(N)c1ccccc1 (stereo not drawn) [α-MBA, 1-phenylethylamine, reference compound]
- TA activity towards amino donor (AspOry) (AspOry): 0
- TA activity towards amino donor (MycVan) (MycVan): 0

Compound: (highly flexible) poly(ethylene glycol) bis (3-aminopropyl) [AD 7]
- TA activity towards amino donor (AspFum) (AspFum): 0
- TA activity towards amino donor (AspOry) (AspOry): 0
- TA activity towards amino donor (Vfl) (Vfl): 0
- TA activity towards amino donor (MycVan) (MycVan): 0
- TA_3HMU activity / acceptance of amino donor, in words (3HMU): high activity

Compound: NCCNC(=O)CCN(CCC(=O)NCCN)CCN(CCC(=O)NCCN)CCC(=O)NCCN [AD 5]
- TA activity towards amino donor (AspFum) (AspFum): 0
- TA activity towards amino donor (ATA 117) (ATA 117): 0
- TA activity towards amino donor (AspOry) (AspOry): 0
- TA activity towards amino donor (Vfl) (Vfl): 0
- TA activity towards amino donor (MycVan) (MycVan): 0
- TA activity towards amino donor (3HMU): 0
- TA activity towards amino donor (3FCR): 0

Compound: CC(C)N [IPA, isopropyl amine, reference compound]
- TA_3HMU stability in presence of amine donor (TA_3HMU; 250 mM amine donor (25-fold excess), 10 mM BA, 3.125 mg/mL enzyme, pH 9.5, 30° C.): fast inactivated

Compound: CC(N)CCc1ccccc1 (centres unmarked) [1M3P, 1-methyl-3-phenylpropylamine]
- additional product formation (TA_v2; NF-2, DuraMem® 200, 20 bar): 15%

Compound: CC(=O)c1ccccc1Br [1b, ortho-bromoacetophenone]
- product formation from ketosubstrate with HMW amino donors (TA_3HMU): very low product formation

Compound: NCCCNCCNCCCN [AD 1, 1,2-bis(3-aminopropylamino)ethane]
- TA activity towards amino donor (AspFum) (AspFum): 0
- TA activity towards amino donor (ATA 117) (ATA 117): 0
- TA activity towards amino donor (AspOry) (AspOry): 0
- TA activity towards amino donor (Vfl) (Vfl): 0
- TA activity towards amino donor (MycVan) (MycVan): 0
- TA activity towards amino donor (3HMU): 0
- TA activity towards amino donor (3FCR): 0

Compound: Poly(propylene glycol) bis(2-aminopropyl ether) [AD 3]
- BA conversion (TA_3HMU; 10 mM BA): 45%
- TA_3HMU activity / acceptance of amino donor, in words (3HMU): broadly comparable to those achieved with the positive control
- TA_3HMU activity / acceptance of amino donor, in words (3HMU; listed as PEG-A): best acceptance

Compound: CC(=O)CCc1ccccc1 [BA, benzylacetone]
- BA converted [1]: 18%
- additional BA converted (TA_v2; 16 h after 5 mM substrate addition, NF reaction mixture and control (Reaction_2, Control-Reaction_2)): ~17%
- BA further converted (TA_v2; Control-reaction_1, following 6 h, without filtration): 2%
- unreacted substrate lost in the permeate stream (TA_v2; Desal-DK): ~58%
- additional substrate conversion (TA_v2; NF-1, 6 h nanofiltration, Desal DK, 20 bar): 10%
- BA converted (TA_v2; Reaction_1, 16 h, 10 mM BA, 250 mM AD 6, 2 mg/mL TA_v2): ~55%
- product formation from ketosubstrate with HMW amino donors (TA_3HMU): qualitatively detected

Compound: NCCCN1CCN(CCCN)CC1 [AD 2, 1,4-Bis(3-aminopropyl)piperazine]
- TA activity towards amino donor (AspFum) (AspFum): 0
- TA activity towards amino donor (MycVan) (MycVan): 0
- TA_3HMU activity / acceptance of amino donor, in words (3HMU): high activity

Compound: O,O′-bis(2-aminopropyl) polypropylene glycol-block-polyethylene glycol-block-polypropylene glycol [AD 6]
- BA conversion (TA_3HMU; 10 mM BA): 51%
- TA_3HMU activity / acceptance of amino donor, in words (3HMU): broadly comparable to those achieved with the positive control
- TA_3HMU activity / acceptance of amino donor, in words (3HMU; listed as PEG-C): best acceptance

Compound: CC(=O)c1ccccc1 [1a, acetophenone]
- product formation from ketosubstrate with HMW amino donors (TA_3HMU): very low product formation
